From patent US20050019855A1, “Methods to increase the productivity of meterologous gene expression” (priority 2001, published 2005)

What was measured:
Assay type in all cases: cell-based, Nicotiana tabacum
[1] = test system: tobacco protoplasts; assay: Transient expression transport assay: secretion index and total activity of α-amylase cargo molecules
Description: (§1) Tobacco leaf protoplasts were electroporated as described (Denecke and Vitale, 1995), and plasmid concentrations used are given in the figure legends. Harvesting of cells and culture medium as well as the enzymatic assays were done as described previously (Denecke and Vitale, 1995; Crofts et al., 1999; Leborgne-Castel et al., 1999). Equal volumes of cells and medium were loaded on protein gel blots or analysed via enzymatic assays to determine the fraction of the marker proteins inside and outside of the cells and to calculate the secretion index (Denecke et al., 1990). Membrane recruitment was assessed by an osmotic shock procedure described previously (Denecke et al., 1990; Denecke et al., 1992).
Protoplasts were extracted in α-amylase extraction buffer (Crofts et al., 1999) via sonication for 5 seconds. In all cases, extracts were cleared by 10 min centrifugation at 2500 g at 4° C. and the supernatant was recovered. α-amylase activity was determined as described (Crofts et al., 1999).
It is established that the molecular target of BFA is the guanosine nucleotide exchange factor for ARF1p, resulting in a stabilisation of an abortive complex with the GDP-bound form of ARF1p at the Golgi membrane. To test if inhibition of retrograde and anterograde transport can be dissected, we decided to utilise the secreted cargo molecule α-amylase (amy) and its derivative carrying an ER retention signal (amy-HDEL), which permits a quantitative analysis of transport rates in tobacco leaf protoplasts (FIGS. 1-6). We have shown before that the secretion index (SI), the ratio between extra- and intracellular activities, provides a simple way to compare relative transport rates at a defined time-point. In addition, amy and amy-HDEL have identical specific enzyme activity and stability throughout the secretory pathway. While both molecules are expected to have identical ER export properties (FIG. 16, route 1), only amy-HDEL can undergo retrograde transport from the Golgi (FIG. 16, route 2). If saturation of the HDEL receptor occurs, amy-HDEL is expected to reach the cell surface in the same manner as amy (FIG. 16, routes 3 and 7). We now tested the influence of different concentrations of BFA on the transport of either cargo molecules via transient gene expression in tobacco protoplasts. […] This effect is less obvious for amy-HDEL.

[2] = test system: stably transformed tobacco cells; assay: Transport time course in protoplasts from stably transformed tobacco cells incubated with BFA; conditions: stable transformants, 30 μg/ml BFA, 240 minute period (FIG. 18)
Description: The experiment shown in FIG. 17 was conducted using a standard transient expression assay with a 24-hour incubation period. This is a long time-period and it is possible that prolonged inhibition of the recycling of essential COPII vesicle budding components leads eventually to an inhibition of anterograde transport. […] To test this, we have carried out a transport experiment in which stably transformed tobacco cells were incubated for different time-periods in the presence of BFA. Under these circumstances, protoplasts contain a steady state level of amy or amy-HDEL from the very beginning of the experiment. This steady state level is very high for amy-HDEL, thus secretion of the cargo into the medium should be detected with high sensitivity if BFA first inhibits […] retrograde transport while COPII anterograde transport is still efficient. […] It was not possible to detect a transient induction of amy-HDEL secretion prior to the inhibition of amy secretion.

[3] = test system: tobacco protoplasts; assay: Transient expression transport assay for phytepsin, read by protein gel blot of medium and cells; conditions: increasing BFA concentration (FIG. 22)
Description: Transient expression experiment showing the influence of BFA (indicated above each lane in μg/ml final concentration) on secretion to the medium (M), intracellular retention (C) and the partitioning between processed (closed arrows) and un-processed (open arrows) forms of phyteposin. Note that BFA inhibits both secretion and intracellular processing of phytepsin.
as §1
Samples were loaded after twofold dilution with 2×SDS-PAGE loading buffer (200 mM Tris-Cl, pH 8.8, 5 mM EDTA, 1 M sucrose, and 0.1% bromophenol blue). Proteins in SDS-polyacrylamide gels were transferred onto a nitrocellulose membrane and then blocked with PBS, 0.5% Tween 20, and 5% milk powder for 1 hr. […]

[4] = 24-hour incubation, increasing BFA concentration (FIG. 17)

In the case of `C[C@H]1CCC/C=C/[C@@H]2C[C@H](O)C[C@H]2[C@H](O)/C=C/C(=O)O1` [BFA, Brefeldin A], the “total activity (medium+cells) of amy-HDEL” value ([1]; 24-hour incubation, BFA present (FIG. 17 lower panel)) is reported as “slightly increased total activity for amy-HDEL”, the “total amount of α-amylase (amy) produced (medium+cells)” value ([1]; 24-hour incubation, BFA treatment (FIG. 17)) is reported as “reduction in the total amount of α-amylase” and the “secretion of amy-HDEL, secretion index” value [1, 4] is reported as “hardly influenced by the drug”. The “secretion of α-amylase (amy), secretion index” value [1, 4] was “concentration-dependent inhibition of α-amylase secretion”, the “secretion of amy-spo to the medium” value ([1]; increasing BFA concentration (FIG. 25B)) was “does not induce secretion of the cargo molecule” and the “secretion of amy, secretion index over time” value [2] was “only inhibits the secretion of amy”. For the same molecule, the “secretion of amy-HDEL, secretion index over time” value [2] was “slightly induced after prolonged incubation (80 minutes and more)”, the “intracellular processing of the phytepsin precursor” value [3] was “inhibits processing of the phytepsin precursor” and the “secretion of phytepsin precursor to the medium” value [3] was “secretion was inhibited at the lowest concentration of BFA used”.
